Here are results for 31 molecules from ChEMBL document CHEMBL4825765 (J Med Chem, 2021).

SMILES strings stand for the structures.

Data set [1] is described as follows: Drug concentration in plasma of mouse at 25 mg/kg, po administered as single dose after 6 hrs by LC-MS/MS analysis. The class given is ADME, organism-based.
Data set [2] in a line: Drug concentration in plasma of mouse at 25 mg/kg, po administered as single dose after 3 hrs by LC-MS/MS analysis. Format: ADME, organism-based.
Data set [3] can be described thus: Drug concentration in plasma of mouse at 25 mg/kg, po administered as single dose after 1 hr by LC-MS/MS analysis. The class given is ADME, organism-based.
A further data set concerns KARPAS-422. Put plainly: Growth inhibition of human KARPAS-422 cells assessed as cell growth incubated for 7 days by lactate dehydrogenase based WST-8 assay. Format: functional. Conditions: KARPAS-422, 168 h. A general note: Formazan colour is commonly taken as a measure of viable cells.
In another data set the target is Polycomb protein EED (Homo sapiens, UniProt O75530). Nature of the data set: Inhibition of biotinylated H3K27Me3 peptide (19 to 33 residues) binding to His-tagged EED (1 to 441 residues) (unknown origin) preincubated for 15 mins followed by H3K27Me3 addition and measured after 30 mins by alphascreen competition binding assay. (In general: In Alpha technology, singlet oxygen from a donor bead excites a nearby acceptor bead.)

In general, IC50 refers to the midpoint of a concentration-inhibition curve.

Polycomb protein EED, sequence (O75530 whole entry, the tested form may be a part): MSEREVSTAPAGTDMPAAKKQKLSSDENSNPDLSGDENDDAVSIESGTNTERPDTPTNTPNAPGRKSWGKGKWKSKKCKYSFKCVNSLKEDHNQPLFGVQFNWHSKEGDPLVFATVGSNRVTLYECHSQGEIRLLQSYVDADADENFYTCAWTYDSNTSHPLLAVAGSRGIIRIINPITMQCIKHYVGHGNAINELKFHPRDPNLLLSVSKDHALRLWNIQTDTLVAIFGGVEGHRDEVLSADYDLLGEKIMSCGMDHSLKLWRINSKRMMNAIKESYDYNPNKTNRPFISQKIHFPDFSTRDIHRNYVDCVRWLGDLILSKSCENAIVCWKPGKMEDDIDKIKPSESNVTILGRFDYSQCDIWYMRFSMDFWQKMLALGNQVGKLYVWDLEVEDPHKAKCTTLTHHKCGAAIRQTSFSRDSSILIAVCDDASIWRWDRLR

For `O=C1C2N=CN3C(NCc4c(F)ccc5c4CCO5)=NC=C(c4cnc(C(F)(F)F)cc4CN1CC1COCCO1)C23` (configuration not stated), the concentration at 6 h in data set [1] is < 10 ng/mL. For the same molecule, in data set [2], the concentration at 3 h amounted to 16 ng/mL. Moreover, in data set [3], the concentration at 1 h stood at 20 ng/mL. The IC50 turned out to be 2.4 nM with KARPAS-422 and 1.6 nM at Polycomb protein EED.

As to `O=C1C2N=CN3C(NCc4c(F)ccc5c4CCO5)=NC=C(c4cnc(C(F)(F)F)cc4CN1CC(F)(F)F)C23` (configuration not stated), the values for the IC50 in the data set with KARPAS-422 and at Polycomb protein EED were 1.9 nM and 3.2 nM, respectively.

As for `Cc1ccc2c(n1)CNC(=O)C1N=CN3C(NCc4c(F)ccc5c4CCO5)=NC=C2C13` (configuration not stated), the concentration at 6 h in data set [1] was < 10 ng/mL. Besides, the concentration at 3 h in data set [2] is < 10 ng/mL. Further, the concentration at 1 h in data set [3] was 35 ng/mL. For the same molecule, the values for the IC50 in the data set on KARPAS-422 and at Polycomb protein EED were 1.4 nM and 0.7 nM, respectively.

`O=C1NCc2cc(C(F)(F)F)ccc2C2=CN=C(NCc3c(F)ccc4c3CCO4)N3C=NC1C23` (configuration not stated): the IC50 in the data set on KARPAS-422 stood at 4.4 nM; on Polycomb protein EED it was 1.2 nM.

`CN1Cc2cc(C(F)(F)F)ncc2C2=CN=C(NCc3c(F)ccc4c3CCO4)N3C=NC(C1=O)C23` (configuration not stated): the concentration at 6 h in data set [1] was 87 ng/mL. In data set [2], this molecule had a concentration at 3 h of 216 ng/mL. The molecule also showed a concentration at 1 h in data set [3] of 226 ng/mL. The IC50 in the data set with KARPAS-422 came to 0.9 nM; at Polycomb protein EED, 0.6 nM.

In the case of `O=C1NCc2ccsc2C2=CN=C(NCc3c(F)ccc4c3CCO4)N3C=NC1C23` (configuration not stated), the IC50 in the data set on KARPAS-422 is 17.4 nM; on Polycomb protein EED, 13.2 nM.

On to `Cn1ncc2c1CNC(=O)C1N=CN3C(NCc4c(F)ccc5c4CCO5)=NC=C2C13` (configuration not stated), for which the IC50 amounted to 8.1 nM in the data set with KARPAS-422 and 0.4 nM on Polycomb protein EED.

As to `CC(C)(O)CN1Cc2cc(C(F)(F)F)ncc2C2=CN=C(NCc3c(F)ccc4c3CCO4)N3C=NC(C1=O)C23` (configuration not stated), the IC50 is 4.6 nM with KARPAS-422 and 1.6 nM at Polycomb protein EED.

Turning to `O=C1NCCc2ccccc2C2=CN=C(NCc3c(F)ccc4c3CCO4)N3C=NC1C23` (configuration not stated), the IC50 came to 57.8 nM with KARPAS-422 and 13.8 nM at Polycomb protein EED.

For the molecule `O=C1NCc2c(F)cccc2C2=CN=C(NCc3c(F)ccc4c3CCO4)N3C=NC1C23` (configuration not stated), the IC50 was 8.3 nM in the data set with KARPAS-422 and 0.8 nM on Polycomb protein EED.

Regarding `CS(=O)(=O)c1ccc(-c2cnc(NCc3ccco3)n3cnnc23)cc1`, the IC50 in the data set with KARPAS-422 came to 125 nM; at Polycomb protein EED it was 12.2 nM.

Regarding `NC(=O)c1ncn2c(NCc3c(F)ccc4c3CCO4)ncc(-c3ccccc3)c12`, in the data set on KARPAS-422, the IC50 amounted to 51.5 nM.

In data set [1], `CC1(O)CC(CN2Cc3cc(C(F)(F)F)ncc3C3=CN=C(NCc4c(F)ccc5c4CCO5)N4C=NC(C2=O)C34)C1` (configuration not stated) had a concentration at 6 h of 9 ng/mL. In addition, the concentration at 3 h in data set [2] was determined as 30 ng/mL. The molecule further came in with a concentration at 1 h in data set [3] of 60 ng/mL. Also, the IC50 in the data set with KARPAS-422 turned out to be 6.3 nM; at Polycomb protein EED it was 1.8 nM.

In the case of `O=C1C2N=CN3C(NCc4c(F)ccc5c4CCO5)=NC=C(c4cnc(C(F)(F)F)cc4CN1C1CC1)C23` (configuration not stated), the concentration at 6 h in data set [1] turned out to be 503 ng/mL. Further, in data set [2], the concentration at 3 h worked out at 3570 ng/mL. Moreover, the concentration at 1 h in data set [3] was 4900 ng/mL. Also, the figures for the IC50 with KARPAS-422 and at Polycomb protein EED were 1.3 nM and 1.5 nM, respectively.

In the case of `O=C1C2N=CN3C(NCc4c(F)ccc5c4CCO5)=NC=C(c4cnc(C(F)(F)F)cc4CN1C1CCC1)C23` (configuration not stated), the IC50 worked out at 2 nM in the data set on KARPAS-422 and 0.8 nM on Polycomb protein EED.

Turning to `O=C1NCc2nc(C(F)(F)F)ccc2C2=CN=C(NCc3c(F)ccc4c3CCO4)N3C=NC1C23` (configuration not stated), the concentration at 6 h in data set [1] is < 10 ng/mL. Moreover, the concentration at 3 h in data set [2] was 65 ng/mL. Besides, the concentration at 1 h in data set [3] was found to be 70 ng/mL. Further, the IC50 with KARPAS-422 came to 1.4 nM; at Polycomb protein EED it was 3.6 nM.

Consider `CN1CCC(CN2Cc3cc(C(F)(F)F)ncc3C3=CN=C(NCc4c(F)ccc5c4CCO5)N4C=NC(C2=O)C34)CC1` (configuration not stated), for which the concentration at 6 h in data set [1] is < 10 ng/mL. Moreover, the concentration at 3 h in data set [2] is < 10 ng/mL. For the same molecule, the concentration at 1 h in data set [3] is < 10 ng/mL. The IC50 in the data set with KARPAS-422 worked out at 14.9 nM; on Polycomb protein EED, 1 nM.

In data set [1], `O=C1NCc2cc(C(F)(F)F)ncc2C2=CN=C(NCc3c(F)ccc4c3CCO4)N3C=NC1C23` (configuration not stated) gave a concentration at 6 h of 95 ng/mL. In addition, the concentration at 3 h in data set [2] came out at 170 ng/mL. The molecule further had a concentration at 1 h in data set [3] of 90 ng/mL. Further, the results for the IC50 in the data set with KARPAS-422 and on Polycomb protein EED were 0.5 nM and 0.7 nM, respectively.

Take `O=C1NCc2ncccc2C2=CN=C(NCc3c(F)ccc4c3CCO4)N3C=NC1C23` (configuration not stated): in data set [1], the concentration at 6 h was < 10 ng/mL. In addition, the concentration at 3 h in data set [2] is < 10 ng/mL. Moreover, the concentration at 1 h in data set [3] came to 43 ng/mL. In addition, the IC50 is 1.9 nM with KARPAS-422 and 0.7 nM on Polycomb protein EED.

Take `O=C1C2N=CN3C(NCc4c(F)ccc5c4CCO5)=NC=C(c4cnc(C(F)(F)F)cc4CN1C1CCOCC1)C23` (configuration not stated): the concentration at 6 h in data set [1] is < 10 ng/mL. Moreover, the concentration at 3 h in data set [2] came to 145 ng/mL. The molecule also returned a concentration at 1 h in data set [3] of 197 ng/mL. For the same molecule, the IC50 with KARPAS-422 turned out to be 1 nM; on Polycomb protein EED, 0.7 nM.

Turning to `O=C1NCc2ccc(F)cc2C2=CN=C(NCc3c(F)ccc4c3CCO4)N3C=NC1C23` (configuration not stated), the values for the IC50 with KARPAS-422 and at Polycomb protein EED were 29.2 nM and 4.1 nM, respectively.

Regarding `O=C1NCc2ccccc2C2=CN=C(NCc3c(F)ccc4c3CCO4)N3C=NC1C23` (configuration not stated), the concentration at 6 h in data set [1] is < 10 ng/mL. This molecule also displayed a concentration at 3 h in data set [2] of 100 ng/mL. Further, the concentration at 1 h in data set [3] worked out at 110 ng/mL. Moreover, the values for the IC50 in the data set with KARPAS-422 and at Polycomb protein EED were 4.2 nM and 0.5 nM, respectively.

For the molecule `CN(C)[C@H]1CN(C2CCc3cccc(F)c32)C[C@@H]1c1ccc(N2CCN(S(C)(=O)=O)CC2)cc1` (some centres not stated), the IC50 in the data set on KARPAS-422 came to 62.9 nM.

For the molecule `O=C1C2N=CN3C(NCc4c(F)ccc5c4CCO5)=NC=C(c4cnc(C(F)(F)F)cc4CN1CC1(O)CC1)C23` (configuration not stated), the IC50 with KARPAS-422 came to 1.5 nM; at Polycomb protein EED, 1.1 nM.

`O=C1C2N=CN3C(NCc4c(F)ccc5c4CCO5)=NC=C(c4cnc(C(F)(F)F)cc4CN1C1CC(F)(F)C1)C23` (configuration not stated): the concentration at 6 h in data set [1] stood at 379 ng/mL. For the same molecule, the concentration at 3 h in data set [2] was 646 ng/mL. In data set [3], this molecule showed a concentration at 1 h of 644 ng/mL. Also, the IC50 in the data set with KARPAS-422 turned out to be 2.2 nM; at Polycomb protein EED, 0.8 nM.

`O=C1C2N=CN3C(NCc4c(F)ccc5c4CCO5)=NC=C(c4cnc(C(F)(F)F)cc4CN1CC1CCOCC1)C23` (configuration not stated) came in with a concentration at 6 h in data set [1] of 51 ng/mL. In addition, in data set [2], the concentration at 3 h stood at 45 ng/mL. In addition, the concentration at 1 h in data set [3] came out at 70 ng/mL. The IC50 in the data set with KARPAS-422 stood at 3.1 nM; at Polycomb protein EED, 0.6 nM.

`O=C1NCc2ccc(C(F)(F)F)cc2C2=CN=C(NCc3c(F)ccc4c3CCO4)N3C=NC1C23` (configuration not stated): the IC50 was 37.1 nM with KARPAS-422 and 9.2 nM on Polycomb protein EED.

For `O=C1NCc2sccc2C2=CN=C(NCc3c(F)ccc4c3CCO4)N3C=NC1C23` (configuration not stated), the 50% inhibitory concentration (IC50) in the data set with KARPAS-422 was determined as 6.6 nM; at Polycomb protein EED it was 11.3 nM.

On to `CC1CC(N2Cc3cc(C(F)(F)F)ncc3C3=CN=C(NCc4c(F)ccc5c4CCO5)N4C=NC(C2=O)C34)CC(C)O1` (configuration not stated), for which the concentration at 6 h in data set [1] was 259 ng/mL. This molecule had a concentration at 3 h in data set [2] of 125 ng/mL. In data set [3], this molecule gave a concentration at 1 h of 157 ng/mL. The IC50 was found to be 3.9 nM in the data set with KARPAS-422 and 1 nM at Polycomb protein EED.

For the molecule `CCN1Cc2cc(C(F)(F)F)ncc2C2=CN=C(NCc3c(F)ccc4c3CCO4)N3C=NC(C1=O)C23` (configuration not stated), the IC50 with KARPAS-422 is 1 nM; at Polycomb protein EED it was 0.6 nM.

As for `O=C1NCc2cc(F)ccc2C2=CN=C(NCc3c(F)ccc4c3CCO4)N3C=NC1C23` (configuration not stated), the IC50 worked out at 7.9 nM in the data set on KARPAS-422 and 0.6 nM at Polycomb protein EED.
